Data taken from patent US7098024B2, “Depsipeptide compound” (Astellas Pharma Inc., priority 1999, dated 2006).

Key:
Assay type in all cases: cell-based
HeLa S3 cells = assay: Measurement of cytotoxic activity for human cancer cells (1), Cell Counting Kit; conditions: 72 h, cultured 3 days, read-out: IC50 value, cytotoxic activity (growth inhibition) for HeLa S3 cells
Description: Measurement of cytotoxic activity for human cancer cells (1)
HeLa S3 cells adjusted to a density of 6×10^4 cells/ml were dispensed in 200 μl portions, and various concentrations of the compound A and compound B respectively in 4 μl portions, into a 96 well test plate, and cultured at 37° C. for 3 days in a CO2 incubator. After the culturing, the degree of cell growth was measured using Cell Counting Kit (mfd. by DOJINDO), and the growth inhibition ratio at each concentration was obtained to calculate the IC50 value.

[1] = tested on: Human colon cancer WiDr cells; assay: Measurement of cytotoxic activity for human cancer cells (2), Sulforhodamine B, WiDr; conditions: 72 hours
Description: (§1) Measurement of cytotoxic activity for human cancer cells (2)
(§2) Human colon cancer WiDr cells adjusted to a density of 6×10^4 cells/ml, human non-small cell lung carcinoma A549 cells adjusted to a density of 4×10^4 cells/ml or human prostate cancer DU-145 cells adjusted to a density of 6×10^4 cells/ml were dispensed into a 96 well test plate and cultured at 37° C. in a CO2 incubator. After 24 hours, varied concentration of the compound A, compound B or compound C was dispensed in 100 μl portions, and the cells were cultured at 37° C. for additional 72 hours in a CO2 incubator. After the culturing, the number of cells was determined using Sulforhodamine B, and the IC50 value of each compound for cell growth was calculated.

[2] = tested on: human non-small cell lung carcinoma A549 cells; assay: Measurement of cytotoxic activity for human cancer cells (2), Sulforhodamine B, A549; conditions: 72 hours; for IC50: Homo sapiens, read-out: IC50 value for cell growth, A549 cells
Description: as §1, §2

[3] = tested on: human prostate cancer DU-145 cells; assay: Measurement of cytotoxic activity for human cancer cells (2), Sulforhodamine B, DU-145; conditions: 72 hours
Description: as §1, §2

[4] = tested on: PAI-1 promoter gene expression in mink lung epithelial cells (MvlLu); assay: Measurement of TGF-β like activity, PAI-1 promoter luciferase reporter
Source text: Measurement of TGF-β like activity
In order to detect the TGF-β like activity, a screening system was constructed making use of the expression of a reporter gene. A fluorescent luciferase gene was transfected into downstream of the PAI-1 promoter gene of mink lung epithelial cells (MvlLu). in which expression of […] (PAI-1) is induced by TGF-β due to excess expression of TGF-β receptor (Journal of Biological Chemistxy, vol. 262, pp. 17467–17414, 1987), (Analytical Biochemistry, vol. 216, pp. 276–284, 1994).
Using the above cells, the luminous intensity obtained by adding each compound was used as the index of TGF-β like activity.

Compound | IC50 (HeLa S3 cells) [nM] | cell growth inhibition activity for WiDr cells [1] | cell growth inhibition activity for A549 cells [2] | IC50 [2] [nM] | cell growth inhibition activity for DU-145 cells [3] | luminous intensity induced by the expression of PAI-1 promoter gene [4]
CC1NC(=O)CC2/C=C/CCSSCC(NC1=O)C(=O)NC(C(C)C)C(O)CC(=O)O2 (stereo not drawn) [Compound A] | 1600 | excellent cell growth inhibition activity | excellent cell growth inhibition activity | ≤ 5 | excellent cell growth inhibition activity | 
CCC(C)C1NC(=O)C2CSSCC/C=C/C(CC(=O)NC(C)C(=O)N2)OC(=O)CC1O (stereo not drawn) [Compound B] | 1200 | excellent cell growth inhibition activity | excellent cell growth inhibition activity | ≤ 5 | excellent cell growth inhibition activity | 
CC(C)CC1NC(=O)C2CSSCC/C=C/C(CC(=O)NC(C)C(=O)N2)OC(=O)CC1O (stereo not drawn) [Compound C] |  | excellent cell growth inhibition activity | excellent cell growth inhibition activity | ≤ 5 | excellent cell growth inhibition activity | 
TGF-β |  |  |  |  |  | increased the luminous intensity
